Laboratory results as given in ChEMBL document CHEMBL1141002, “Alpha-mercaptoketone based histone deacetylase inhibitors” (Bioorg Med Chem Lett, 2008).
Where “and” joins values, the source holds several entries; their conditions need not be identical. Equal entries are not always repeated.

What was measured:
Histone deacetylase = test: Inhibition of histone deacetylase in human HeLa cells assessed as induction of histone H3 hyperacetylation; assay type: cell-based
HCT-116 [1] = test: Cytotoxicity against human HCT116 cells; assay type: functional, cell-based
HCT-116 [2] = test: Antitumor activity against human HCT116 cells xenografted in nude mouse at 50 mg/kg, po administered once a day for 14 days relative to control; assay type: functional

Structure (SMILES) | EC50 (Histone deacetylase) | EC50 (HCT-116 [1]) | T/C (HCT-116 [2])
CC(=O)SCC(=O)c1ccc(NS(=O)(=O)c2ccc(C)cc2)cc1 | 100 nM | 6500 nM | –
CC(=O)SCC(=O)c1ccc(NS(=O)(=O)c2ccc3c(c2)ncn3C)cc1 | 79 nM and 38 nM | 1800 nM | –
CC(=O)SCC(=O)c1ccc(C(=O)Nc2ccc(OC(F)(F)F)cc2)cc1 | 67100 nM | – | –
COc1ccc(S(=O)(=O)Nc2ccc(C(=O)CSC(C)=O)cc2)cc1OC | 280 nM | 3200 nM | –
CC(=O)SCC(=O)c1ccc(NS(=O)(=O)c2ccc3c(c2)NCC3)cc1 | 47 nM | 3300 nM | –
CC(=O)SCC(=O)c1ccc(NS(=O)(=O)c2ccc3c(c2)N(C(C)=O)CC3)cc1 | 91 nM | 4600 nM | –
CC(=O)SCC(=O)c1ccc(NS(=O)(=O)c2ccc3c(c2)ncn3C)nc1 | 240 nM | 4900 nM | –
CC(=O)SCC(=O)c1ccc(NS(=O)(=O)c2ccc3c(c2)CCO3)nc1 | 95 nM | 6400 nM | –
CC(=O)SCC(=O)c1ccc(NS(=O)(=O)c2ccc3ccccc3c2)cc1 | 29 nM | 2600 nM | –
CC(=O)SCC(=O)c1ccc(NS(=O)(=O)c2ccc3c(c2)CCN3)cc1 | 160 nM | 1100 nM | –
CC(=O)SCC(=O)c1ccc(NS(=O)(=O)c2ccc3c(c2)OCO3)nc1 | 360 nM | 5500 nM | –
CC(=O)SCC(=O)c1ccc(NS(=O)(=O)c2ccc3c(c2)OCO3)cc1 | 88 nM | 1400 nM | –
CC(=O)SCC(=O)c1ccc(NS(=O)(=O)c2ccccc2)nc1 | 150 nM | 5300 nM | –
CC(=O)SCC(=O)c1ccc(NS(=O)(=O)c2ccc3c(c2)CCO3)cc1 | 82 nM | 3200 nM | –
CC(=O)SCC(=O)c1ccc(NS(=O)(=O)c2ccc3ccccc3c2)nc1 | 42 nM | 4900 nM | –
CC(=O)SCC(=O)c1ccc(NS(=O)(=O)c2ccc3cc[nH]c3c2)cc1 | 44 nM | 600 nM | –
CC(=O)SCC(=O)c1ccc(N(C)S(=O)(=O)c2ccc(OC(F)(F)F)cc2)cc1 | 4300 nM | – | –
CC(=O)SCC(=O)c1ccc(NS(=O)(=O)c2ccc(Cl)c(Cl)c2)cc1 | 420 nM | – | –

Structure (SMILES) | EC50 (Histone deacetylase) | EC50 (HCT-116 [1]) | T/C (HCT-116 [2])
CC(=O)SCC(=O)c1ccc(NS(=O)(=O)c2cccc(F)c2)cc1 | 460 nM | – | –
CC(=O)SCC(=O)c1ccc(NS(=O)(=O)c2ccc(Cl)cc2)cc1 | 280 nM | 30800 nM | –
CC(=O)SCC(=O)c1ccc(NS(=O)(=O)c2cccc(OC(F)(F)F)c2)cc1 | 790 nM | – | –
CC(=O)SCC(=O)c1ccc(NS(=O)(=O)c2ccc(OC(F)(F)F)cc2)cc1 | 200 nM | 8800 nM | –
COc1ccc(S(=O)(=O)Nc2ccc(C(=O)CSC(C)=O)cc2)cc1 | 50 nM | 500 nM | –
CC(=O)SCC(=O)c1ccc(NS(=O)(=O)c2ccc(C(F)(F)F)cc2)cc1 | 2100 nM | – | –
CC(=O)SCC(=O)c1ccc(S(=O)(=O)Nc2ccc(OC(F)(F)F)cc2)cc1 | 1000 nM | 16100 nM | –
CC(=O)SCC(=O)c1ccc(NS(=O)(=O)c2ccccc2Cl)cc1 | 850 nM | – | –
CC(=O)SCC(=O)c1ccc(NS(=O)(=O)c2cccc(Cl)c2)cc1 | 150 nM | – | –
CC(=O)SCC(=O)c1ccc(NS(=O)(=O)c2ccc3c(c2)OCCN3C)cc1 | 100 nM | 2600 nM | –
CC(=O)SCC(=O)c1ccc(NS(=O)(=O)c2ccc3[nH]ccc3c2)cc1 | 59 nM | 1500 nM | –
CC(=O)SCC(=O)c1ccc(NS(=O)(=O)c2ccc3c(c2)OCCN3C)nc1 | 150 nM | 9600 nM | –
CC(=O)SCC(=O)c1ccc(NS(=O)(=O)c2ccc3c(c2)OCCO3)cc1 | 26 nM | 400 nM | 87%
CC(=O)SCC(=O)c1ccc(NCc2ccc(OC(F)(F)F)cc2)cc1 | 1500 nM | – | –
CC(=O)SCC(=O)c1ccc(NS(=O)(=O)c2ccccc2)cc1 | 330 nM | 15400 nM | –
COc1cccc(S(=O)(=O)Nc2ccc(C(=O)CSC(C)=O)cc2)c1 | 170 nM | 2600 nM | –
CC(=O)SCC(=O)c1ccc(NC(=O)Nc2ccc(OC(F)(F)F)cc2)cc1 | 11200 nM | – | –
CC(=O)SCC(=O)c1ccc(NS(=O)(=O)c2ccc(F)cc2)cc1 | 950 nM | – | –
